A word on the DC50: it is the concentration giving 50% degradation. The low end stands for a more potent degrader, the high end for a less potent degrader. The term Dmax denotes the largest share of the target that was removed.

Format in all cases: cell-based
In assay [1] the target is T1, EGFR L858R/T790M (H1975-clone #36, homozygous) (Homo sapiens, UniProt P00533, L858R/T790M).
T1 construct: designed to specifically target WT EGFR but preserve the L858R/T790M copy; host or cells: H1975-clone #36
T1 sequence (P00533 25-1210 T790M/L858R): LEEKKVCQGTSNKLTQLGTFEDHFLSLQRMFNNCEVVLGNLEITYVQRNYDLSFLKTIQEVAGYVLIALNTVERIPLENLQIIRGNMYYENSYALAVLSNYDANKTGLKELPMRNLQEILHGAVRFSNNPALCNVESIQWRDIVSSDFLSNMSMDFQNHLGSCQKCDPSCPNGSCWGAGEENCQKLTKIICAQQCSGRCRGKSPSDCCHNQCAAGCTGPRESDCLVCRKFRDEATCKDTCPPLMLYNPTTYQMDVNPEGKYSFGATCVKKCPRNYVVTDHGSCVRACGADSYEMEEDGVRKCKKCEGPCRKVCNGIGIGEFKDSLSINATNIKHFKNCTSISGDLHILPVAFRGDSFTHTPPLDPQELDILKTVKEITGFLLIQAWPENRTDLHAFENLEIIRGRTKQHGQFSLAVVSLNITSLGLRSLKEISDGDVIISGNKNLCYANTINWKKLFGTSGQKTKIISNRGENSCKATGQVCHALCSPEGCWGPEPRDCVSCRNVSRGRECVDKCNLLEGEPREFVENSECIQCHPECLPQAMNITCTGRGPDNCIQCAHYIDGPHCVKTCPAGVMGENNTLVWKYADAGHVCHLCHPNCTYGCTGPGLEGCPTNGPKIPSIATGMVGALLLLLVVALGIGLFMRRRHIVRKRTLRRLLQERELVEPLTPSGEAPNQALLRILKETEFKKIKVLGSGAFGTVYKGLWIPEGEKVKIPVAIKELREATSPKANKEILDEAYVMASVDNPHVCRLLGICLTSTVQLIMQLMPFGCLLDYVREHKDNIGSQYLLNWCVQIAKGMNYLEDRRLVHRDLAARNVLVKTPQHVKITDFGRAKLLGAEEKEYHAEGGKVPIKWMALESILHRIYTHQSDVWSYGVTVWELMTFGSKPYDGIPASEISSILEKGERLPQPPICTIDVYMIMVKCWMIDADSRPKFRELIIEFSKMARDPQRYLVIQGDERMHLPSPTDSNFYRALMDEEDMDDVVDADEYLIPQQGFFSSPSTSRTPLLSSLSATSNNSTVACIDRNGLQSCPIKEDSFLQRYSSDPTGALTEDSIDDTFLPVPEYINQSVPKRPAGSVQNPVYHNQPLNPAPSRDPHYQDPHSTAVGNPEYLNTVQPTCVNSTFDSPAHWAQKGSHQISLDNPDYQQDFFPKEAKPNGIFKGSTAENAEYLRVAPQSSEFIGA
Put plainly: EGFR degradation HTRF assay, H1975-clone #36 cells. The conditions noted are these: H1975 #36, 16h treatment; for Dmax: NCI-H1975, maximum percentage of degradation. The method, boiled down: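 Eight-point, 5-fold series starting at 10 uM (0.2% DMSO) applied for 16 h, 37 °C, to a WT-EGFR-knockout H1975 clone carrying only L858R/T790M. Lysates read by HTRF overnight. Degradation percentage relative to DMSO control fitted for DC50, with Dmax as maximum degradation.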

The target in assay [2] is T2, EGFR L858R/T790M/C797S (BaF3-LTC cells) (Homo sapiens, UniProt P00533, C797S/L858R/T790M).
T2 construct: expressed in transfected cells; host or cells: BaF3
T2 sequence (P00533 25-1210 T790M/C797S/L858R): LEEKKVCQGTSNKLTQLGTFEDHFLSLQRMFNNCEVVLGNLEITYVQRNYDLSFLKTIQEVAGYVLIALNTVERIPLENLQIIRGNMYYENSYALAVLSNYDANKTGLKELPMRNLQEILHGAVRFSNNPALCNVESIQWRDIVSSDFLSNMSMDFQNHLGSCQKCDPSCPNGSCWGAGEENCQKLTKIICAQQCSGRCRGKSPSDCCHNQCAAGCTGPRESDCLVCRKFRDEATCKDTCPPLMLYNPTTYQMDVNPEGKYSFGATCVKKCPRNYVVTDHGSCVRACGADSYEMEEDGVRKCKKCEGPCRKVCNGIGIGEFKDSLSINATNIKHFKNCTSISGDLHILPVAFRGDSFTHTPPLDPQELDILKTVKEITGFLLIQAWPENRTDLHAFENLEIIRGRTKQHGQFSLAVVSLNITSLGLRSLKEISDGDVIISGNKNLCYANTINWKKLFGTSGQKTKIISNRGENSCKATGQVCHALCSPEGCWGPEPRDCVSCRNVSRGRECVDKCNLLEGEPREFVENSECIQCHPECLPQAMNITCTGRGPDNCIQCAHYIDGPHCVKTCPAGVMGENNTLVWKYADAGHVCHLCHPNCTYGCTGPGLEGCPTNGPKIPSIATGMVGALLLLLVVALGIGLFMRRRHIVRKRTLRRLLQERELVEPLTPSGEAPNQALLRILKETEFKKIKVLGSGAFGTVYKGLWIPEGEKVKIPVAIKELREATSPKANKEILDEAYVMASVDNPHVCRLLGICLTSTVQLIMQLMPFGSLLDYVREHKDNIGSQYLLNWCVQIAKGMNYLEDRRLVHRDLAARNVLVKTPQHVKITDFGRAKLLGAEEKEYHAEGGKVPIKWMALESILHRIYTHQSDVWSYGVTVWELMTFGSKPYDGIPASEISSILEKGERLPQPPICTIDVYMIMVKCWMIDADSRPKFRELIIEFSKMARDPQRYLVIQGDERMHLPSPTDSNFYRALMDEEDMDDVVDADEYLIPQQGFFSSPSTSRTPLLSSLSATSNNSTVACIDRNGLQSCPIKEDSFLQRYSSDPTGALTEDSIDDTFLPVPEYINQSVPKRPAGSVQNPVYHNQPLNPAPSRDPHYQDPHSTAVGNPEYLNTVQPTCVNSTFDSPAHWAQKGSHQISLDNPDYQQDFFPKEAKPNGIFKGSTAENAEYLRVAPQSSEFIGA
The experiment in a line: EGFR degradation HTRF assay, BaF3-LTC cells. The conditions noted are these: BaF3-LTC, 16h treatment, maximum percentage of degradation; read-out: LTC Dmax (%). The method, boiled down: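 EGFR remaining after a 16 h, 37 °C exposure (8 doses, 5-fold steps from 10 uM final, 0.2% DMSO) was quantified by HTRF antibodies in cell lysate. Percent inhibition relative to DMSO control was fitted by four-parameter logistic to give DC50; Dmax denotes maximal degradation.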
For orientation: In TR-FRET formats the signal depends on donor and acceptor labels being close together.

Assay [3] deals with T3, EGFR (HCC827 cells) (Homo sapiens, UniProt P00533, DEL746-750).
T3 construct: endogenous in cells; host or cells: HCC827
T3 sequence (P00533 with tags, fused parts or gaps DEL746-750): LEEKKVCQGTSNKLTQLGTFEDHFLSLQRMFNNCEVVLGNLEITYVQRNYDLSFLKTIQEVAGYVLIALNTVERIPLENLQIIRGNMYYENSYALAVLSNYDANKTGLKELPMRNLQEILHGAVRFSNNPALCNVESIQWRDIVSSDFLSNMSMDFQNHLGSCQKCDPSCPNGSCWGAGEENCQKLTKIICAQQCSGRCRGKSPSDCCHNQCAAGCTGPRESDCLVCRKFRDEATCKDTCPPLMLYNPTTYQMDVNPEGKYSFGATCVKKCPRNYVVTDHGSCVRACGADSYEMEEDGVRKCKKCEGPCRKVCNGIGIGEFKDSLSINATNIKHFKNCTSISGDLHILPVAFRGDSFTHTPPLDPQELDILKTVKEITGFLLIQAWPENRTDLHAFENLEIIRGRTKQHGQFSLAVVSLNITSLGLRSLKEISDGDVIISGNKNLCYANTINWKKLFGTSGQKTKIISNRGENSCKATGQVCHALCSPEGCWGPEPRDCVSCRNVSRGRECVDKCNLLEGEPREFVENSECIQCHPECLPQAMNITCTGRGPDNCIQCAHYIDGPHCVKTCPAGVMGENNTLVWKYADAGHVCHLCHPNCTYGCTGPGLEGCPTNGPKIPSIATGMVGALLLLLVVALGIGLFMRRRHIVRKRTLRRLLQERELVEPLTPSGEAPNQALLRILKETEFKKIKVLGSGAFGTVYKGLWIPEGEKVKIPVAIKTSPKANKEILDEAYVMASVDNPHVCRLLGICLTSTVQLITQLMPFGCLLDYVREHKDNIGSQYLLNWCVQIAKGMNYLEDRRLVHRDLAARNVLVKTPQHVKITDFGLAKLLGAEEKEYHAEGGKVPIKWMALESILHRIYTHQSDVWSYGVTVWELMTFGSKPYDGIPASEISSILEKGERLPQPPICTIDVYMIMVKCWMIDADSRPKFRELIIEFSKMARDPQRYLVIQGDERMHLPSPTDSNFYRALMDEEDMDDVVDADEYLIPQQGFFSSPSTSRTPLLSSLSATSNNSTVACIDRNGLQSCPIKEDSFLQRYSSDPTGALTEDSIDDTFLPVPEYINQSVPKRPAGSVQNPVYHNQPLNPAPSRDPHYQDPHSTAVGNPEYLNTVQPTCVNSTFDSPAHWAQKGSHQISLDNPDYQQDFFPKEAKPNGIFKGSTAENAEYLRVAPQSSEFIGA
Put plainly: EGFR degradation HTRF assay, HCC827 cells. The note with it: HCC827, 16h treatment; for Dmax: maximum percentage of degradation. The method, boiled down:
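BaF3 (WT, Del19/T790M/C797S) and HCC827 cells exposed 16 h at 37 °C, 5% CO2 to compounds in 0.2% DMSO medium, 8 doses from 10 uM top, 5-fold steps. Lysates read by HTRF (665/620 nm); degradation % vs DMSO control, DC50 from four-parameter fit, Dmax as maximal degradation.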

For the molecule `CCc1cc(Nc2ncc(Br)c(Nc3ccc4nccnc4c3P(C)(C)=O)n2)c(OC)cc1N1CCC(N2CCN(CCc3cc(F)c(C4CCC(=O)NC4=O)c(F)c3)CC2)CC1` (stereo not drawn) [Example 11, 3-(4-(2-(4-(1-(4-((5-bromo-4-((5-(dimethylphosphoryl)quinoxalin-6-yl)amino)pyrimidin-2-yl)amino)-2-ethyl-5-methoxyphenyl)piperidin-4-yl)piperazin-1-yl)ethyl)-2,6-difluorophenyl)piperidine-2,6-dione], the DC50 was 5.41 nM in assay [1] and 2.84 nM in assay [3]. For the same molecule, the Dmax in assay [1] was 97.4%; in assay [2], 91.9%; in assay [3] it was 86.4%.

In assay [1], `CCc1cc(Nc2ncc(Br)c(Nc3ccc4nccnc4c3P(C)(C)=O)n2)c(OC)cc1N1CCC(N2CCN(CCc3ccc(C4CCC(=O)NC4=O)c(Cl)c3)CC2)CC1` (stereo not drawn) [Example 4, 3-(4-(2-(4-(1-(4-((5-bromo-4-((5-(dimethylphosphoryl)quinoxalin-6-yl)amino)pyrimidin-2-yl)amino)-2-ethyl-5-methoxyphenyl)piperidin-4-yl)piperazin-1-yl)ethyl)-2-chlorophenyl)piperidine-2,6-dione] returned a DC50 of 7.44 nM and a Dmax of 75.4%. In assay [3], half-maximal degradation (DC50) was put at 11.1 nM and the Dmax is 83.6%.

Turning to `COc1cc(N2CCC(N(C)CCCOc3ccc(N4CCC(=O)NC4=O)cc3)CC2)c(C)cc1Nc1ncc(Br)c(Nc2ccc3nccnc3c2P(C)(C)=O)n1` [Example 85, 1-(4-(3-((1-(4-((5-bromo-4-((5-(dimethylphosphoryl)quinoxalin-6-yl)amino)pyrimidin-2-yl)amino)-5-methoxy-2-methylphenyl)piperidin-4-yl)(methyl)amino)propoxy)phenyl)dihydropyrimidine-2,4(1H,3H)-dione], in assay [1], the DC50 was more than 10000 nM and the Dmax is 20.9%. In assay [3], this molecule yielded a DC50 of 73.3 nM and a Dmax of 75%.

On to `COc1cc(N2CCN(C3CN(C(=O)c4cnc(C(=O)Nc5ccc(C6CCC(=O)NC6=O)cc5)cn4)C3)CC2)ccc1Nc1ncc(Cl)c(Nc2ccccc2P(C)(C)=O)n1` (stereo not drawn) [Example 116, 5-(3-(4-(4-((5-chloro-4-((2-(dimethylphosphoryl)phenyl)amino)pyrimidin-2-yl)amino)-3-methoxyphenyl)piperazin-1-yl)azetidine-1-carbonyl)-N-(4-(2,6-dioxopiperidin-3-yl)phenyl)pyrazine-2-carboxamide], for which the figures for the DC50 in assay [1] and in assay [3] were 6.63 nM and 17.9 nM, respectively. Further, the Dmax was 62% in assay [1] and 75.4% in assay [3].

As for `COc1cc(N2CCN(CC3CCN(c4ccc(N5CCC(=O)NC5=O)c(C)c4)CC3)CC2)c(C)cc1Nc1ncc(Br)c(Nc2ccc3nccnc3c2P(C)(C)=O)n1` [Example 99, 1-(4-(4-((4-(4-((5-bromo-4-((5-(dimethylphosphoryl)quinoxalin-6-yl)amino)pyrimidin-2-yl)amino)-5-methoxy-2-methylphenyl)piperazin-1-yl)methyl)piperidin-1-yl)-2-methylphenyl)dihydropyrimidine-2,4(1H,3H)-dione], the DC50 in assay [1] was more than 10000 nM; in assay [3], 60.1 nM. The Dmax was determined as 35.6% in assay [1] and 78.5% in assay [3].

The values above are taken from patent US20230265116A1, “DEGRADATION OF (EGFR) BY CONJUGATION OF EGFR INHIBITORS WITH E3 LIGASE LIGAND AND METHODS OF USE” (BEIGENE, LTD., priority 2020, published 2023).
